Reference: patent publication US10294202B2, “Pyrrolidinones as herbicides” (FMC Corporation, priority 2013, dated 2019)

Columns and labels:
giant foxtail = assay: Test A pre-/postemergence herbicide test; format: in vivo, Setaria faberii; details: for Plant response rating, Foxtail, Giant: 0 to 100 scale
Method in brief: (§1)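 Greenhouse pot test with pre- and postemergence application of surfactant-containing solvent formulations. Postemergence plants were 2–10 cm, one- to two-leaf stage. Response scored visually after ~10 days, 0 (no effect) to 100 (complete control).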

barnyardgrass [1] = assay: Test B flooded paddy test; format: in vivo, Echinochloa crus-galli; details: Flood, scale of 0 to 100 where 0 is no effect and 100 is complete control
Method in brief: (§2)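 In-water application to pots flooded 3 cm deep, plants at 2-leaf stage. Held in greenhouse 13–15 days at constant flood depth. Scored 0–100 by eye against controls.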

wheat = assay: Test A pre-/postemergence herbicide test; format: in vivo, Triticum aestivum; details: for Plant response rating, Wheat: 0 to 100 scale
Method in brief: as §1

corn = assay: Test A pre-/postemergence herbicide test; format: in vivo, Zea mays; details: for Plant response rating, Corn: 0 to 100 scale
Method in brief: as §1

sedge, umbrella = assay: Test B flooded paddy test; format: in vivo, Cyperus difformis; details: Flood, scale of 0 to 100 where 0 is no effect and 100 is complete control
Method in brief: as §2

rice = assay: Test B flooded paddy test; format: in vivo, Oryza sativa; details: Flood, scale of 0 to 100 where 0 is no effect and 100 is complete control
Method in brief: as §2

pigweed = assay: Test A pre-/postemergence herbicide test; format: in vivo, Amaranthus retroflexus; details: for Plant response rating, Pigweed: 0 to 100 scale
Method in brief: as §1

crabgrass, large = assay: Test A pre-/postemergence herbicide test; format: in vivo, Digitaria sanguinalis; details: for Plant response rating, Crabgrass, Large: 0 to 100 scale
Method in brief: as §1

velvetleaf = assay: Test A pre-/postemergence herbicide test; format: in vivo, Abutilon theophrasti; details: for Plant response rating, Velvetleaf: 0 to 100 scale
Method in brief: as §1

morningglory = assay: Test A pre-/postemergence herbicide test; format: in vivo, Ipomoea spp.; details: for Plant response rating, Morningglory: 0 to 100 scale
Method in brief: as §1

barnyardgrass [2] = assay: Test A pre-/postemergence herbicide test; format: in vivo, Echinochloa crus-galli; details: for Plant response rating, Barnyardgrass: 0 to 100 scale
Method in brief: as §1

ducksalad = assay: Test B flooded paddy test; format: in vivo, Heteranthera limosa; details: Flood, scale of 0 to 100 where 0 is no effect and 100 is complete control
Method in brief: as §2

[3] = 125 g ai/ha, visual rating, 0 no effect, 100 complete control, approximately 10 days, preemergence
[4] = Postemergence, 125 g ai/ha, 0 is no effect, 100 is complete control
[5] = preemergence, 500 g ai/ha, 0 is no effect and 100 is complete control

Row | Compound | Plant response rating, Foxtail, Giant (giant foxtail; [3]) | Plant response rating, Foxtail, Giant (giant foxtail; [4]) | Foxtail, Giant plant response rating (0 to 100 scale, 0 is no effect, 100 is complete control) (giant foxtail; Postemergence, 500 g ai/ha) | Plant response rating, Foxtail, Giant (giant foxtail; [5]) | Plant response rating, Barnyardgrass (barnyardgrass [1]; 250 g ai/ha) | Plant response rating, Barnyardgrass (barnyardgrass [1]; 1000 g ai/ha) | Plant response rating, Wheat (wheat; [3]) | Plant response rating, Wheat (wheat; [4]) | Wheat plant response rating (0 to 100 scale, 0 is no effect, 100 is complete control) (wheat; Postemergence, 500 g ai/ha) | Plant response rating, Wheat (wheat; [5]) | Plant response rating, Corn (corn; [3]) | Plant response rating, Corn (corn; [4]) | Corn plant response rating (0 to 100 scale, 0 is no effect, 100 is complete control) (corn; Postemergence, 500 g ai/ha) | Plant response rating, Corn (corn; [5]) | Plant response rating, Sedge, Umbrella (sedge, umbrella; 250 g ai/ha) | Plant response rating, Sedge, Umbrella (sedge, umbrella; 1000 g ai/ha) | Plant response rating, Rice (rice; 250 g ai/ha) | Plant response rating, Rice (rice; 1000 g ai/ha) | Plant response rating, Pigweed (pigweed; [3]) | Plant response rating, Pigweed (pigweed; [4]) | other results
1 | COc1cc(C2CNC(=O)C2C(=O)Nc2ccccc2C(F)(F)F)ccc1F (racemic) [Compound 196] | 80 | 20 | 70 | 90 | 0 | 20 | 0 | 0 | 0 | 0 | 0 | 0 | 0 | 0 | 0 | 0 | 0 | 0 | 0 | 0 | Pigweed plant response rating (0 to 100 scale, 0 is no effect, 100 is complete control) (pigweed; Postemergence, 500 g ai/ha): 0; Plant response rating, Pigweed (pigweed; [5]): 0; Plant response rating, Crabgrass, Large (crabgrass, large; [3]): 90; Plant response rating, Crabgrass, Large (crabgrass, large; [4]): 70; Crabgrass, Large plant response rating (0 to 100 scale, 0 is no effect, 100 is complete control) (crabgrass, large; Postemergence, 500 g ai/ha): 80; Plant response rating, Crabgrass, Large (crabgrass, large; [5]): 100; Plant response rating, Velvetleaf (velvetleaf; [3]): 0; Plant response rating, Velvetleaf (velvetleaf; [4]): 0; Velvetleaf plant response rating (0 to 100 scale, 0 is no effect, 100 is complete control) (velvetleaf; Postemergence, 500 g ai/ha): 0; Plant response rating, Velvetleaf (velvetleaf; [5]): 0; Plant response rating, Morningglory (morningglory; [3]): 0; Plant response rating, Morningglory (morningglory; [4]): 0; Morningglory plant response rating (0 to 100 scale, 0 is no effect, 100 is complete control) (morningglory; Postemergence, 500 g ai/ha): 0; Plant response rating, Morningglory (morningglory; [5]): 0; Plant response rating, Barnyardgrass (barnyardgrass [2]; [3]): 0; Plant response rating, Barnyardgrass (barnyardgrass [2]; [4]): 30; Barnyardgrass plant response rating (0 to 100 scale, 0 is no effect, 100 is complete control) (barnyardgrass [2]; Postemergence, 500 g ai/ha): 80; Plant response rating, Barnyardgrass (barnyardgrass [2]; [5]): 70; Plant response rating, Ducksalad (ducksalad; 250 g ai/ha): 0; Plant response rating, Ducksalad (ducksalad; 1000 g ai/ha): 90
2 | COc1ccc(C2CNC(=O)C2C(=O)Nc2cccc(F)c2F)cc1F (racemic) [Compound 198] | 50 | 10 | 60 | 80 | 0 | 65 | 0 | 0 | 0 | 0 | 0 | 0 | 0 | 0 | 0 | 0 | 0 | 15 | 0 | 0 | Pigweed plant response rating (0 to 100 scale, 0 is no effect, 100 is complete control) (pigweed; Postemergence, 500 g ai/ha): 0; Plant response rating, Pigweed (pigweed; [5]): 0; Plant response rating, Crabgrass, Large (crabgrass, large; [3]): 90; Plant response rating, Crabgrass, Large (crabgrass, large; [4]): 50; Crabgrass, Large plant response rating (0 to 100 scale, 0 is no effect, 100 is complete control) (crabgrass, large; Postemergence, 500 g ai/ha): 80; Plant response rating, Crabgrass, Large (crabgrass, large; [5]): 100; Plant response rating, Velvetleaf (velvetleaf; [3]): 0; Plant response rating, Velvetleaf (velvetleaf; [4]): 0; Velvetleaf plant response rating (0 to 100 scale, 0 is no effect, 100 is complete control) (velvetleaf; Postemergence, 500 g ai/ha): 0; Plant response rating, Velvetleaf (velvetleaf; [5]): 0; Plant response rating, Morningglory (morningglory; [3]): 0; Plant response rating, Morningglory (morningglory; [4]): 0; Morningglory plant response rating (0 to 100 scale, 0 is no effect, 100 is complete control) (morningglory; Postemergence, 500 g ai/ha): 0; Plant response rating, Morningglory (morningglory; [5]): 0; Plant response rating, Barnyardgrass (barnyardgrass [2]; [3]): 50; Plant response rating, Barnyardgrass (barnyardgrass [2]; [4]): 50; Barnyardgrass plant response rating (0 to 100 scale, 0 is no effect, 100 is complete control) (barnyardgrass [2]; Postemergence, 500 g ai/ha): 80; Plant response rating, Barnyardgrass (barnyardgrass [2]; [5]): 90; Plant response rating, Ducksalad (ducksalad; 250 g ai/ha): 70; Plant response rating, Ducksalad (ducksalad; 1000 g ai/ha): 95
